Reference: ChEMBL document CHEMBL4831506, “Discovery of novel trimethoxyphenylbenzo[d]oxazoles as dual tubulin/PDE4 inhibitors capable of inducing apoptosis at G2/M phase arrest in glioma and lung cancer cells” (Eur J Med Chem, 2021)

How the values were obtained:
U-251 [1] = test: Antiproliferative activity against human U-251 cells after 48 hrs by MTT assay; assay type: functional, cell-based; conditions: U-251, 48 h
A549 [2] = test: Antiproliferative activity against human A549 cells after 48 hrs by MTT assay; assay type: functional, cell-based; conditions: A549, 48 h
NCI-H460 = test: Antiproliferative activity against human NCI-H460 cells after 48 hrs by MTT assay; assay type: functional, cell-based; conditions: NCI-H460, 48 h
MCF7 = test: Antiproliferative activity against human MCF7 cells after 48 hrs by MTT assay; assay type: functional, cell-based; conditions: MCF7, 48 h
Sus scrofa [3] = organism: Sus scrofa; test: (§1) Inhibition of pig brain tubulin polymerization at 1 uM by spectrometric method relative to control; assay type: tissue-based
Sus scrofa [4] = organism: Sus scrofa; test: Inhibition of pig brain tubulin polymerization at 10 uM by spectrometric method relative to control; assay type: tissue-based
A549 [5] = test: Cell cycle arrest in human A549 cells assessed as G0/G1 phase at 500 nM incubated for 24 hrs by propidium iodide staining based flow cytometry analysis (reference value: 79.14%); assay type: functional
A549 [6] = test: Cell cycle arrest in human A549 cells assessed as G2/M phase at 500 nM measured after 24 hrs by propidium iodide staining based flow cytometry analysis (reference value: 6.08%); assay type: functional
A549 [7] = test: Cell cycle arrest in human A549 cells assessed as S phase at 500 nM measured after 24 hrs by propidium iodide staining based flow cytometry analysis (reference value: 14.78%); assay type: functional
U-251 [8] = test: Cell cycle arrest in human U-251 cells assessed as G0/G1 phase at 200 nM measured after 24 hrs by propidium iodide staining based flow cytometry analysis (reference value: 67.34%); assay type: functional
U-251 [9] = test: Cell cycle arrest in human U-251 cells assessed as G2/M phase at 200 nM measured after 24 hrs by propidium iodide staining based flow cytometry analysis (reference value: 14.43%); assay type: functional
U-251 [10] = test: Cell cycle arrest in human U-251 cells assessed as S phase at 200 nM measured after 24 hrs by propidium iodide staining based flow cytometry analysis (reference value: 18.23%); assay type: functional
A549 [11] = test: Induction of apoptosis in human A549 cells assessed as increase in viable cells at 500 nM measured after 24 hrs by PI/FITC analysis (reference value: 98.4%); assay type: functional
A549 [12] = test: Induction of apoptosis in human A549 cells assessed as increase in early apoptotic cells at 500 nM measured after 24 hrs by PI/FITC analysis (reference value: 0.955%); assay type: functional
A549 [13] = test: Induction of apoptosis in human A549 cells assessed as increase in necrotic cells at 500 nM measured after 24 hrs by PI/FITC analysis (reference value: 0.365%); assay type: functional
U-251 [14] = test: Induction of apoptosis in human U-251 cells assessed as increase in viable cells at 200 nM measured after 24 hrs by PI/FITC analysis (reference value: 98.3%); assay type: functional
U-251 [15] = test: Induction of apoptosis in human U-251 cells assessed as increase in early apoptotic cells at 200 nM measured after 24 hrs by PI/FITC analysis (reference value: 1.12%); assay type: functional
U-251 [16] = test: Induction of apoptosis in human U-251 cells assessed as increase in late apoptotic cells at 200 nM measured after 24 hrs by PI/FITC analysis (reference value: 0.311%); assay type: functional
U-251 [17] = test: Induction of apoptosis in human U-251 cells assessed as increase in necrotic cells at 200 nM measured after 24 hrs by PI/FITC analysis (reference value: 0.301%); assay type: functional
[18] = as §1; assay type: tissue-based, Sus scrofa
[19] = biological target: 3',5'-cyclic-AMP phosphodiesterase 4C (Homo sapiens, UniProt Q08493); test: Inhibition of PDE4 CAT (unknown origin)
A549 [20] = test: Induction of apoptosis in human A549 cells assessed as increase in late apoptotic cells at 500 nM measured after 24 hrs by PI/FITC analysis (reference value: 0.955%); assay type: functional

Sequence of 3',5'-cyclic-AMP phosphodiesterase 4C (Q08493 whole entry): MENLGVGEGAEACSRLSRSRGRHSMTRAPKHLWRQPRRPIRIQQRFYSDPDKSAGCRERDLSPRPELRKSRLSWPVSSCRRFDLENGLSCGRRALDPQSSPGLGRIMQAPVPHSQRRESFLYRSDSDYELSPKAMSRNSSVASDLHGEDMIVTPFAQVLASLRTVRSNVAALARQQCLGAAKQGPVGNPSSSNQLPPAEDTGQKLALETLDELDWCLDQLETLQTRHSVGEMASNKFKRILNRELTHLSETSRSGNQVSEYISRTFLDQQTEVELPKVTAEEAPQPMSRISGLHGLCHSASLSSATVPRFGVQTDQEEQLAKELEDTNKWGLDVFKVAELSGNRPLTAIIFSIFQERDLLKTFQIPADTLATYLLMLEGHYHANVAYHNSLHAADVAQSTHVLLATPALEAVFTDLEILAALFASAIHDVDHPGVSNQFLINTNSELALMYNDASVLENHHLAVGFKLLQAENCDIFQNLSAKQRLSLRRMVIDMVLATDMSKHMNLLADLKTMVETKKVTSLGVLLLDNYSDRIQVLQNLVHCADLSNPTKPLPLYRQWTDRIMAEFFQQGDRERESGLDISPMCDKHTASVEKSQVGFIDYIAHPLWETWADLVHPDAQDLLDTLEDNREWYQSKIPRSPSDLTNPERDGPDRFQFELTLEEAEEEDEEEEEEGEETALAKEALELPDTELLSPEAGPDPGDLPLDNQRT

| Compound | IC50 (U-251 [1]) [µM] | IC50 (A549 [2]) [µM] | IC50 (NCI-H460) [µM] | IC50 (MCF7) [µM] | also measured |
| --- | --- | --- | --- | --- | --- |
| COc1cc(-c2cccc3oc(-c4cccc(F)c4)nc23)cc(OC)c1OC | > 25 | > 25 | > 25 | > 25 | – |
| COc1ccc(/C=C\c2cc(OC)c(OC)c(OC)c2)cc1O [COMBRETASTATIN A4] | 0.13 | 0.6 | 0.076 | 0.42 | inhibition (Sus scrofa [3]): 52%; inhibition (Sus scrofa [4]): 94%; Activity (A549 [5]): 37.63%; Activity (A549 [6]): 40.07%; Activity (A549 [7]): 22.31%; Activity (U-251 [8]): 34.64%; Activity (U-251 [9]): 42.9%; Activity (U-251 [10]): 22.47%; Activity (A549 [11]): 77.9%; Activity (A549 [12]): 10.1%; Activity (A549 [13]): 0.412%; Activity (U-251 [14]): 92.1%; Activity (U-251 [15]): 4.02%; Activity (U-251 [16]): 11.9%; Activity (U-251 [17]): 1.96% |
| COc1cc(OC)cc(-c2nc3c(-c4cc(OC)c(OC)c(OC)c4)cccc3o2)c1 | > 25 | 16.3 | 5.7 | > 25 | – |
| COc1ccc(-c2cccc3nc(-c4ccc5cc[nH]c5c4)oc23)c(OC)c1OC | 9.5 | 9.6 | > 25 | > 25 | – |
| COc1cc(-c2cccc3oc(-c4ccc(F)cc4)nc23)cc(OC)c1OC | > 25 | > 25 | 22.1 | > 25 | – |
| COc1ccc(-c2nc3c(-c4cc(OC)c(OC)c(OC)c4)cccc3o2)cc1F | 19.4 | > 25 | 19.9 | > 25 | – |
| COc1cc(-c2cccc3oc(-c4ccccc4)nc23)cc(OC)c1OC | > 25 | > 25 | 9 | > 25 | – |
| COc1ccc(-c2nc3c(-c4cc(OC)c(OC)c(OC)c4)cccc3o2)cc1OC | > 25 | 20.1 | 8.9 | > 25 | – |
| COc1cc(-c2cccc3oc(-c4ccc(Cl)cc4)nc23)cc(OC)c1OC | > 25 | > 25 | 8.6 | > 25 | – |
| COc1cc(-c2cccc3oc(-c4ccc(C)cc4)nc23)cc(OC)c1OC | 16.2 | 20.2 | 3.1 | > 25 | – |
| COc1cc2c(c(OC)c1OC)-c1ccc(OC)c(=O)cc1[C@@H](NC(C)=O)CC2 [COLCHICINE] | 0.017 | 0.024 | – | 0.04 | – |
| COc1ccc(-c2nc3cccc(-c4cc(OC)c(OC)c(OC)c4)c3o2)cc1OC | 1.3 | 2.8 | > 25 | > 25 | – |
| COc1ccc(C2CNC(=O)C2)cc1OC1CCCC1 (stereo not drawn) [ROLIPRAM] | > 100 | > 100 | > 100 | > 100 | Activity (A549 [5]): 79.7%; Activity (A549 [6]): 4.56%; Activity (A549 [7]): 15.73%; Activity (U-251 [8]): 68.42%; Activity (U-251 [9]): 14.73%; Activity (U-251 [10]): 16.85%; Activity (A549 [11]): 98.2%; Activity (A549 [12]): 1.34%; Activity (A549 [20]): 0.291%; Activity (A549 [13]): 0.216%; Activity (U-251 [14]): 96.4%; Activity (U-251 [15]): 1.96%; Activity (U-251 [16]): 0.865%; Activity (U-251 [17]): 0.745% |

Second part, led by results:

| IC50 (U-251 [1]) [µM] | IC50 (A549 [2]) [µM] | IC50 (NCI-H460) [µM] | IC50 (MCF7) [µM] | Compound | also measured |
| --- | --- | --- | --- | --- | --- |
| > 25 | > 25 | > 25 | > 25 | COc1cc(-c2cccc3nc(-c4ccc(Br)cc4)oc23)cc(OC)c1OC | – |
| 6.8 | 2.1 | 3.8 | > 25 | COc1cc(-c2cccc3nc(-c4cccc(Br)c4)oc23)cc(OC)c1OC | – |
| 1.7 | 1.8 | 2.8 | > 25 | COc1ccc(-c2nc3cccc(-c4cc(OC)c(OC)c(OC)c4)c3o2)cc1F | – |
| 10.3 | 15.7 | 2 | > 25 | COc1cc(-c2nc3cccc(-c4cc(OC)c(OC)c(OC)c4)c3o2)ccc1O | – |
| > 25 | 16.7 | > 25 | > 25 | COc1cc(-c2cccc3nc(-c4cccc(C)c4)oc23)cc(OC)c1OC | – |
| 3.5 | 20.3 | 6.8 | > 25 | COc1cc(-c2cccc3nc(-c4ccccc4)oc23)cc(OC)c1OC | – |
| 5.5 | 2 | 1.9 | > 25 | COc1cc(-c2cccc3nc(-c4cccc(O)c4)oc23)cc(OC)c1OC | IC50 [18]: 5 µM; inhibition (Sus scrofa [4]): 43% |
| 2.9 | 2.6 | 3.3 | > 25 | COc1cc(-c2cccc3nc(-c4cccc(F)c4)oc23)cc(OC)c1OC | – |
| 1.6 | 5.6 | > 25 | > 25 | COc1cc(-c2cccc3nc(-c4ccc(Cl)cc4)oc23)cc(OC)c1OC | – |
| > 25 | 8.7 | 8.7 | > 25 | COc1cc(-c2cccc3nc(-c4ccc(F)cc4)oc23)cc(OC)c1OC | – |
| 1.04 | 0.72 | 0.31 | > 25 | COc1cc(-c2cccc3nc(-c4ccc(N)cc4)oc23)cc(OC)c1OC | inhibition (Sus scrofa [3]): 11%; inhibition (Sus scrofa [4]): 36% |
| > 25 | 2.2 | 3.5 | > 25 | COc1ccc(-c2nc3cccc(-c4cc(OC)c(OC)c(OC)c4)c3o2)cc1 | – |
| 3 | 12.5 | 1.6 | > 25 | COc1cc(-c2cccc3nc(-c4cccs4)oc23)cc(OC)c1OC | inhibition (Sus scrofa [4]): 0%; IC50 [19]: 0.57 µM |
| 2.2 | 4.7 | 2.6 | > 25 | COc1cc(-c2cccc3nc(-c4cccc(N)c4)oc23)cc(OC)c1OC | inhibition (Sus scrofa [3]): 14%; inhibition (Sus scrofa [4]): 19% |
| > 25 | 3.5 | > 25 | > 25 | COc1cccc(-c2nc3cccc(-c4cc(OC)c(OC)c(OC)c4)c3o2)c1 | – |
| 18.5 | > 25 | > 25 | > 25 | COc1cc(-c2cccc3nc(-c4cccc(Cl)c4)oc23)cc(OC)c1OC | – |
| 10.6 | 10.3 | 2.6 | > 25 | COc1cc(-c2cccc3nc(-c4ccco4)oc23)cc(OC)c1OC | inhibition (Sus scrofa [4]): 0%; IC50 [19]: 3.3 µM |
| 3.2 | 0.68 | 1.9 | > 25 | COc1cc(-c2cccc3nc(-c4ccc(C)cc4)oc23)cc(OC)c1OC | inhibition (Sus scrofa [4]): 18% |
